Each structure is given as a SMILES string.

In assay [1] the test system is SOX9. In words: SOX9 luciferase reporter assay in transfected astrocytes. The assay is classed as cell-based, rat. To be noted: cultured rat astrocytes, 24 h treatment. An excerpt: Cultures early after plating bear characteristics of immature and reactive astroctyes associated with acute damage. In this assay, primary astrocytes are transfected with a SOX9 reporter construct that consists of 4 repeats of the SOX9 binding site coupled to the mouse Col2a1 minimal promoter cloned upstream of a luciferase gene in the plasmid pGL4, as previously described in WO 2008/049226. After normalization for transfection efficiency, SOX9 activity can be monitored in transfected astrocytes by luciferase activity. Cells transfected with the SOX9 reporter construct were cultured in the presence and absence of potential inhibitors for 24 hours at which time the cells were lysed and luciferase levels measured. Compounds that reduced the levels of luciferase activity relative to control wells were considered as positive “hits”. In a secondary screen, false positives that cause a reduction in luciferase activity due to effects on cell viability, were eliminated using a cell viability assay (CellTiter-Flour—Promega). Subsequent to secondary screening, the “hits” were evaluated for their affect on SOX9 target gene expression by Q-PCR studies in primary astrocytes.
The utility of calmodulin antagonists (inhibitor) to decrease SOX9 target gene expression was evaluated in cultured rat astrocytes transfected with pGL4.1 4×48 Col2a1 prepared as described in Example 1. This plasmid contains 4-48 bp SOX9-binding sites from the Col2A1 enhancer which promote luciferase reporter gene expression in cells where SOX9 is active i.e. in the nucleus. The day after transfection, cells were treated for 24 h with inhibitor in concentrations as described below and in FIG. 5 before the luciferase assay was performed.
In this example, the potential of compounds that modulate calcium channels to modulate SOX9 activity is tested. The compounds were evaluated in cultured rat astrocytes transfected with pGL4.1 4×48 Col2a1. The day after transfection, cells were treated for 24 h with selected inhibitors before the luciferase assay was performed.
Antagonists to TRPV4 cation channel were tested to determine their ability to decrease the activity of SOX9 in astrocytes. The effect of TRPV4 antagonists on SOX9 function was evaluated in cultured rat astrocytes transfected with pGL4.1 4×48 Col2a1. The day after transfection, cells were treated for 24 h with 2-APB (100 μM) or ruthenium red (10 μM) before the luciferase assay was performed. […] With respect to SOX9 target genes, Q-PCR analysis of aged primary astrocyte cultures was performed to determine the impact of the TRPV4 antagonists on SOX9. […] Collagen IV is a significant scarring extracellular matrix produced by astrocytes and contributing to the inhibitory properties of the glial scar.

In assay [2] the test system is MCAO mice. In words: Grip testing after MCAO (stroke model). The assay is classed as in vivo. To be noted: mouse MCAO, 5 mg/kg daily i.p. from 24 hours post-injury. As to the method: At 3 days and 7 days post-injury, recovery of the damaged side was assessed by grip testing. […] This provides evidence that chemical compounds that modulate SOX9 activity can improve behavioral function following general CNS damage including that associated with spinal cord injury and stroke.
Stroke injury model: A standard MCAO mouse model will be utilized. Briefly, an 11 mm length of monofilament nylon coated with Poly-L-lysine is passed into the common carotid artery, through the internal carotid artery, and past the middle cerebral artery (MCA), effectively occluding the MCA. The loop of suture is tightened down and the mouse allowed to recover in a warm cage. Effective cerebral blood flow reduction is confirmed by a laser-Doppler flowmetry probe (reductions of 70% or better indicating successful occlusion). After 30 minutes for a moderate injury or 60 minutes for a severe injury, the mouse is re-anesthetized and the nylon suture removed allowing reperfusion.

With `CN(C)CCCN1c2ccccc2Sc2ccc(Cl)cc21` [chlorpromazine], the “concentration at which the decrease in luciferase reporter activity is optimized / maximal” value in assay [1] came out at 20 µM. Besides, the “luciferase reporter activity (SOX9 activity)” value in assay [1] (various concentrations (FIG. 5)) is “apparent dose dependent response to limiting luciferase expression”. Moreover, the “improvement over saline control in grip testing” value in assay [2] (3 days post injury) is “approximately 15%”; in assay [2] (7 days post injury) it was “approximately 20%”.

The values above are taken from patent US20130266663A1, “SOX9 INHIBITORS” (priority 2010, published 2013).
